Results published in paper PMC9182211, “Structural Investigation of the Interaction Mechanism between Chlorogenic Acid and AMPA Receptor via In Silico Approaches” (Molecules, 2022).

Target: T1, GluA1 (glutamate ionotropic receptor AMPA type subunit 1) (Homo sapiens, UniProt P42261)
T1 construct: gene GRIA1; Recombinant human GluA1 (AMPA subtype) protein (Abcam ab112297)
Assay: SPR (Biacore T200, GluA1 immobilized on CM5 chip, steady-state fit)
Format: binding

T1 sequence (P42261 19-906): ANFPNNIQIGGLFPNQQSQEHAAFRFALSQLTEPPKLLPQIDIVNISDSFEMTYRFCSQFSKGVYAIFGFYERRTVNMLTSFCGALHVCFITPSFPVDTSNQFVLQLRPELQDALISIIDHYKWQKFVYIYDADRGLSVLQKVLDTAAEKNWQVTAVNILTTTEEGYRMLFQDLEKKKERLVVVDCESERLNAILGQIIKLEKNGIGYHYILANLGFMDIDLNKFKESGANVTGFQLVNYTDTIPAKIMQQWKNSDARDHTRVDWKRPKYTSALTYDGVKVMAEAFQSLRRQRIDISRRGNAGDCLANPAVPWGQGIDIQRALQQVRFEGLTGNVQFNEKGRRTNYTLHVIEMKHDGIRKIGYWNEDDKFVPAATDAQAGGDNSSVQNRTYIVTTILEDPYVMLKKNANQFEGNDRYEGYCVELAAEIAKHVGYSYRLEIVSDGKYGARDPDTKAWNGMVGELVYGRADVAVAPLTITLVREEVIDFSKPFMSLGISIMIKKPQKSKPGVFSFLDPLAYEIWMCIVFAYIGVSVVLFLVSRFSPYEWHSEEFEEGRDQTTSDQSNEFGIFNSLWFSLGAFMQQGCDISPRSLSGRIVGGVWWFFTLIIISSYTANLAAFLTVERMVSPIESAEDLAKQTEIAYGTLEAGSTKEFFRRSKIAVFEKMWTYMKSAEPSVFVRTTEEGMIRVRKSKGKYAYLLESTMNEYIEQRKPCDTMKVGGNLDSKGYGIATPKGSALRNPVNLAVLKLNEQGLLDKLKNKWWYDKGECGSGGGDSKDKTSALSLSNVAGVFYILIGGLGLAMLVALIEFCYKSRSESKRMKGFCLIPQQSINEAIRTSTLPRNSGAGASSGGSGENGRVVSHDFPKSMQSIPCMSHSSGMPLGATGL

## O=C(/C=C/c1ccc(O)c(O)c1)O[C@@H]1C[C@](O)(C(=O)O)C[C@@H](O)[C@H]1O [CGA, (1S,3R,4R,5R)-3-[(E)-3-(3,4-dihydroxyphenyl)prop-2-enoyl]oxy-1,4,5-trihydroxycyclohexane-1-carboxylic acid]
  Kd: 496 µM
